“And” between values parts separate entries of the source, which are not always exact repeats. Equal values may be shown once.
Legend:
[1] = test system: salmon lice; conditions: 100 ppm bath; in one hour; U.S. Pat. No. 5,504,081; cited from earlier work
[2] = test system: Lepeophtheirus pre-adult lice; assay: Feed trials: removal of pre-adult sea lice from fish fed medicated feed; assay type: in vivo; conditions: for Lice removed by 11 days after last day of treatment / Lice removed by 3 days after last day of treatment: Feed Trial Number One; for Lice removed by 2 days after last day of treatment / Lice removed by 9 days after last day of treatment: Feed Trial Number Two
Protocol: Empyreal™ 75, a processed corn protein concentrate, was mixed with imidacloprid to form a pre-mix. This pre-mix was then added to salmon feeds using fish oil to help coat it onto the pellets to prepare the medicated feed.
Medicated feed for fish was prepared based on the amount of feed that the fish were consuming each day to give a total dosage to different tanks of fish of 10, 20, 40, 60 and 100 milligrams of active ingredient (imidacloprid) over a 5 day period. Experiments were run using total dosages given over 5 days of feeding. A 5 day period was used to provide efficacy, convenience and safety.
Individual fish weights ranged from 62 to 188 grams.
Sea lice have a number of developmental stages on salmon of which two are pre-adults that do a lot of damage to the fish (e.g. Lepeophtheirus pre-adult I, Lepeophtheirus pre-adult II, Caligus pre-adult I, Caligus pre-adult II). Compositions were tested on the two pre-adult stages of Lepeophtheirus. The disclosed compositions are also useful for killing sea lice in the adult male and adult female and adult gravid female stage and the juvenile chalimus stages.

[3] = Tolerance of fish at five times the 20 mg/kg total dosage (mortalities, histology); assay type: in vivo, salmon
[4] = test system: L. salmonis; conditions: in-feed 1, 5 or 10 mg/kg/day for 7 days; WO 2014/064184; cited from earlier work
[5] = 8 mg/kg fish per day, total 40 mg/kg
[6] = 12 mg/kg fish per day, total 60 mg/kg
[7] = 2 mg/kg fish per day, total 10 mg/kg

For `O=[N+]([O-])NC1=NCCN1Cc1ccc(Cl)nc1` [Imidacloprid, (2E)-1-((6-chloropyridin-3-yl)methyl)-N-nitroimidazolidin-2-imine], the lice killed [1] is listed as 100%, the Lepeophtheirus lice removed ([2]; 4 mg per kilogram per day for five days, three days into the five-day treatment) is listed as 13.6% and the “Lice removed by 11 days after last day of treatment” value (“Lice removed by 11 days” below) ([2]; 4 mg/kg fish per day, total 20 mg/kg, 16 days after treatment had started) is listed as 100%. The “Lice removed by 11 days” value ([2]; 4 mg/kg fish per day, total 20 mg/kg, 16 days after treatment had started, listed as imidacloprid) was 100%, the “Lice removed by 3 days after last day of treatment” value (from here on “Lice removed by 3 days”) ([2]; 4 mg/kg fish per day, total 20 mg/kg, eight days after the treatment had started) was 96.70% and 96.75% and the “Lice removed by 3 days” value ([2]; 4 mg/kg fish per day, total 20 mg/kg, eight days after the treatment had started, listed as imidacloprid) was 96.75%. The “Lice removed by 3 days” value [2, 5] was 97.84%, the “Lice removed by 11 days” value [2, 5] was 97.84%^ and the “Lice removed by 3 days” value [2, 6] was 100%. The “Lice removed by 11 days” value [2, 6] was 100%, the “Lice removed by 2 days after last day of treatment” value [2, 7] was 64.28% and the “Lice removed by 9 days after last day of treatment” value [2, 7] was 77.67%. The “Lice removed by 9 days after last day of treatment” value ([2]; 2 mg/kg fish per day, total 10 mg/kg, listed as imidacloprid) was 77.7%, the “Lice removed by 2 days after last day of treatment” value ([2]; 20 mg/kg fish per day, total 100 mg/kg) was 88.37% and the removal of lice ([2]; higher dosages trialed, 40, 60 and 100 milligrams total) was “very effective removal of lice”. The “abnormalities on histological examination of organs” value ([3]; 100 mg/kg total dosage) was “no abnormalities detectable” and the mortalities ([3]; 100 mg/kg total dosage (five times the 20 mg/kg total dosage)) was “no mortalities”.

For `CN/C(=N\[N+](=O)[O-])NCc1cnc(Cl)s1` [clothianidin], the sea lice elimination [4] is given as “full sea lice elimination”.
